Experimental data published in patent US11925630B1, “6′-(2-bromophenyl)-2′-methoxy-3,4′-bipyridine-3′-carbonitrile as an antioxidant compound” (KING FAISAL UNIVERSITY, priority 2023, dated 2024).

Test: DPPH radical scavenging antioxidant test
Assay type: biochemical
Settings: 517 nm; for Inhibition (radical scavenging inhibition): 0.2 mL DPPH (0.75 mM), compound 3 μM in ethanol, 30 minutes in the dark
Experimental: The antioxidant activity of 6′-(2-bromophenyl)-2′-methoxy-3,4′-bipyridine-3′-carbonitrile was investigated by 2,2-diphenyl-1-picrylhydrazyl (DPPH) in vitro tests that employ vitamin C as the positive control.
The antioxidant properties of the 6′-(2-bromophenyl)-2′-methoxy-3,4′-bipyridine-3′-carbonitrile compound were studied by adding 0.2 mL DPPH (0.75 mM)) to 6′-(2-bromophenyl)-2′-methoxy-3,4′-bipyridine-3′-carbonitrile (3 μM) (4) in ethanol. After 30 minutes of incubation in the dark, the absorbance was read against a blank at 517 nm. Ascorbic acid (vitamin C) was used as standard antioxidants (positive control). A blank sample was prepared by 0.2 mL of DPPH in 3 mL ethanol. A negative control sample was run using ethanol instead of the sample. The radical scavenging inhibition was calculated using the following equation: […]
The antioxidant activity for the synthesized compound is listed in Table 1, using Vitamin C as a reference.

| SMILES | Inhibition (radical scavenging inhibition) [%] | antioxidant potential compared to vitamin C (in words) (DPPH in vitro test, vitamin C as positive control) |
| --- | --- | --- |
| COc1nc(-c2ccccc2Br)cc(-c2cccnc2)c1C#N [Product 4, 6′-(2-bromophenyl)-2′-methoxy-3,4′-bipyridine-3′-carbonitrile] | 50 | high potential as an antioxidant |
| O=C1O[C@H]([C@@H](O)CO)C(O)=C1O [vit c, Ascorbic acid, reference compound] | 74 | – |
